Test results taken from US7087623B2, “Thiazole and other heterocyclic ligands for mammalian dopamine, muscarinic and serotonin receptors and transporters, and methods of use thereof” (Sepracor Inc., priority 2001, dated 2006).
Like-named read-outs stand apart in the source and are kept apart here.

Columns and labels:
[1] = target: T1, human serotonin 5-HT2A receptor (Homo sapiens, UniProt P28223); test: Radioligand binding assay, human 5-HT2A receptors ([3H]Ketanserin)
T1 construct: expressed in transfected cells; host or cells: CHO-K1

[2] = target: T2, human serotonin 5-HT2B receptor (Homo sapiens, UniProt P41595); test: Radioligand binding assay, human 5-HT2B receptors ([3H]LSD)
T2 construct: expressed in transfected cells; host or cells: CHO-K1
Procedure, shortened: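 Membranes from CHO-K1 cells stably expressing human 5-HT2B, in modified Tris-HCl pH 7.4, bound with [3H]LSD. Non-specific binding defined with 10 μM serotonin; specific binding counted after filtration and three washes.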

[3] = target: T3, human muscarinic M2 receptor (Homo sapiens, UniProt P08172); test: Binding to human muscarinic M2 receptors ([3H]N-methylscopolamine)
T3 construct: expressed in transfected cells; host or cells: BSR-M2H
T3 sequence (P08172 1-466): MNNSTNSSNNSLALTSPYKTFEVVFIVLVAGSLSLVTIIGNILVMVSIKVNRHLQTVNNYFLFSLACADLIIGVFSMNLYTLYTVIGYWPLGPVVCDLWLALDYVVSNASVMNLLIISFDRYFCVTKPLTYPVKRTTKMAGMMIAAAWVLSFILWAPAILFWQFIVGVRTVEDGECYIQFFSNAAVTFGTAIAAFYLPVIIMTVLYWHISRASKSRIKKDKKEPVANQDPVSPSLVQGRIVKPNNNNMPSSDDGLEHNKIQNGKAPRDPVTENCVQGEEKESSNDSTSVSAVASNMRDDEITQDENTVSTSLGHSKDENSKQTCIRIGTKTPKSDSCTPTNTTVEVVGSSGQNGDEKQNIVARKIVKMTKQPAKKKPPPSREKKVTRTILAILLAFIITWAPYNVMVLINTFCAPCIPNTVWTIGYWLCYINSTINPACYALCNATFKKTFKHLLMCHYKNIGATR
Description: This assay measures binding of [^3H]N-methylscopolamine to human muscarinic M2 receptors. BSR-M2H cells transfected with a plasmid encoding the human muscarinic M2 receptor were used to prepare membranes in modified Tris-HCl pH 7.4 buffer using standard techniques. A 5 μg aliquot of membrane was incubated with 0.29 nM [^3H]N-methylscopolamine for 60 minutes at 25° C. Non-specific binding was estimated in the presence of 1 μM atropine. Membranes were filtered and washed 3 times and the filters were counted to determine [^3H]N-methylscopolamine specifically bound. See Buckley, N. J., Bonner, T. I., Buckley, C. M. and Brann, M. R. Antagonist binding properties of five cloned muscarinic receptors expressed in CHO-K1 cells. Mol. Pharmacol. 35: 469–476, 1989; and Delmendo, R. E., Michel, A. D. and Whiting, R. L. Affinity of muscarinic receptor antagonists for the three putative muscarinic binding sites. Br. J. Pharmacol. 96: 457–464, 1989.
The human 5-HT2a and 5-HT2b screens were conducted according to Bonhaus, D. W. et al. Br. J. Pharmacol. 1995, 115, 622. The human […], W. A. et al. J. Neurochem. 1997, 69, 1449. The human 5-HT6 screen was conducted according to Monsama, F. J. et al. Mol. Pharmacol. 1993, 43, 320. The assay to human D3 receptors was conducted according to Sokoloff, P. et al. Nature 1990, 347;146. The human dopamine transporter assay was conducted according to Gu, H. et. al. J. Biol. Chem. 1994, 269 (10);7124; and Giros, B. et al. Trends. Pharmacol. Sci. 1993, 14: 43. The human muscarinic M1–M4 screens were conducted according to Buckley N. J. et al. Mol. Pharmacol. 1989, 35:469.
The human dopamine transporter assay was conducted according to Gu, H. et. al. J. Biol. Chem. 1994, 269 (10);7124 and Giros, B. et al. Trends. Pharmacol. Sci. 1993, 14: 43. The human muscarinic M1–M4 screens were conducted according to Buckley N. J. et al. Mol. Pharmacol. 199, 35:469

[4] = human, Example 100 table, read-out: IC50 (nM) 5-HT2A
[5] = human, Example 100 table, read-out: IC50 (nM) 5-HT2B
[6] = human, Example 100 table, read-out: IC50 (nM) M2
[7] = human 5-HT2a, Example 16 table, read-out: IC50 (nM) 5-HT2a
[8] = human 5-HT2b, Example 16 table, read-out: IC50 (nM) 5-HT2b
[9] = human, Example 101 table, read-out: IC50 (nM) M2

T2 sequence (P41595 whole entry): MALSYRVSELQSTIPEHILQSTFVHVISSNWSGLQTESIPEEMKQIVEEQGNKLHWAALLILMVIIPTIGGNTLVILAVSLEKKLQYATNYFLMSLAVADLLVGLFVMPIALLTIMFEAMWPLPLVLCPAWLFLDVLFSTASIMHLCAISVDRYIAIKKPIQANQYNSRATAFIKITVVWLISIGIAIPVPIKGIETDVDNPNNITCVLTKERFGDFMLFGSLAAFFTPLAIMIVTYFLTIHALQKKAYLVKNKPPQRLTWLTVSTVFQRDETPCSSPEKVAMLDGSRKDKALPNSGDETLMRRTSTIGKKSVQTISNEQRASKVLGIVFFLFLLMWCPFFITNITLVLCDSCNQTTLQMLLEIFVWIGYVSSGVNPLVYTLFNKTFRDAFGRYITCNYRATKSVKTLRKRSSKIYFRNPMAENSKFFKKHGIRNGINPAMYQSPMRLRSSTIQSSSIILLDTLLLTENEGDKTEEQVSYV
T1 sequence (P28223 whole entry): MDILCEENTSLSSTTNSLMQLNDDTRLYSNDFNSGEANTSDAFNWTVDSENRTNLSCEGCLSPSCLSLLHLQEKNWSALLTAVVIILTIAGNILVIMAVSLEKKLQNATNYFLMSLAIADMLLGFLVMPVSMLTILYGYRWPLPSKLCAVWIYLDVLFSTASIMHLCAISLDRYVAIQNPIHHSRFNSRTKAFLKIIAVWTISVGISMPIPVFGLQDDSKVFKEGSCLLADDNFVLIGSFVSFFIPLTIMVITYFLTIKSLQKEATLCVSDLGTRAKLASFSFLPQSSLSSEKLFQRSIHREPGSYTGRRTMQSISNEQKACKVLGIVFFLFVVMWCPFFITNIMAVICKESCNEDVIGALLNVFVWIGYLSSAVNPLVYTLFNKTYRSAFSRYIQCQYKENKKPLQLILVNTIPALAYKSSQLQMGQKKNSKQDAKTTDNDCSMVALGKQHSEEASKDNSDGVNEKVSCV

IC50 [3, 6]	SMILES	IC50 [1, 7]	IC50 [2, 8]	IC50 [3, 9]	further results
> 1000 nM	CN1CCCC1CCNc1nc(C2(c3ccccc3F)CCCCC2)cs1 (racemic) [Compound 128, {4-[1-(2-fluorophenyl)-cyclohexyl]-thiazol-2-yl}-[2-(1-methyl-pyrrolidin-2-yl)-ethyl]-amine]	–	–	–	IC50 [1, 4]: < 100 nM; IC50 [2, 5]: < 1000 nM
> 1000 nM	CN1CCCC1CCNc1nc(C2(c3ccccc3F)CCCCC2)cs1 (single isomer, unassigned) [Compound 130, {4-[1-(2-fluorophenyl)-cyclohexyl]-thiazol-2-yl}-[2-(1-methyl-pyrrolidin-2-yl)-ethyl]-amine]	–	–	–	IC50 [1, 4]: < 100 nM; IC50 [2, 5]: < 100 nM
–	CN1CCN(c2nc(C3(c4csc5ccc(Cl)cc45)CCOCC3)cs2)CC1 [Compound 36]	> 1000 nM	< 1000 nM	> 1000 nM	–
–	Clc1ccc(C2(c3csc(N4CCNCC4)n3)CCOCC2)cc1 [Compound 37]	< 1000 nM	> 1000 nM	> 1000 nM	–
–	CN1CCN(c2nc(C3(c4ccccc4)CCOCC3)cs2)CC1 [Compound 59]	–	–	–	IC50 ([1]; IC50 (nM) 5-HT2a, human 5-HT2a, Example 16 table): > 1000 nM; IC50 [2]: > 1000 nM; IC50 [3]: > 1000 nM
–	CN1CCN(c2nc(C3(c4cccc(Cl)c4)CCOCC3)cs2)CC1 [Compound 63]	> 1000 nM	< 1000 nM	> 1000 nM	–
–	CN1CCN(c2nc(C3(c4ccccc4F)CCCCC3)cs2)CC1 [Compound 83]	> 1000 nM	< 100 nM	> 1000 nM	–
–	CN1CCN(c2nc(C3(c4ccccc4F)CCCC3)cs2)CC1 [Compound 93]	< 1000 nM	< 1000 nM	< 500 nM	–

SMILES	IC50 [3, 6]	IC50 [1, 7]	IC50 [2, 8]	IC50 [3, 9]	further results
CN1CCN(c2nc(C3(c4ccccc4F)CCOCC3)cs2)CC1 [Compound 112]	> 1000 nM	–	–	–	–
